Measured values as given in patent US7576177B2, “Hsp peptides and analogs for modulation of immune responses via antigen presenting cells” (Andromeda Biotech Ltd., priority 2002, dated 2009).
Like-named read-outs stand apart in the source and are kept apart here.

Legend:
[1] = tested on: peripheral blood mononuclear cells cultured with GM-CSF and IL4 (dendritic cells); assay: Peripheral blood derived dendritic cells: secreted cytokines (IP-10, IL-8) and cell surface antigens (CD83, CD86); assay type: cell-based, human; conditions: for IL-8 / IP-10: overnight
Experimental: The effect of the compositions of the present invention on peripheral blood derived dendritic cells, was tested according to a protocol described by Re, F. and Strominger, J. L. 2001. Toll-like receptor 2 (Tlr2) and Tlr4 differentially activate human dendritic cells. (J Biol Chem 276: 37692-9). According to this method immature dendritic cells derived from human peripheral blood are used. The outcome after incubating the cells with tested molecules is different if the stimulation is through the Toll 4 receptor or the Toll 2 receptor. According to the authors, Toll 2 signaling by stimulation with zymosan is associated with a Th2 kind of response (exemplified by IL-8) and Toll 4 signaling, such as obtained by LPS stimulation (exemplified by IP-10), with a Th1 type of response. The compositions of the present invention were tested using a similar assay system in order to check which stimulation type they induce. […] The increase in CD86 expression after exposure of APCs to Hsps or Hsp derived peptides is important since CD86 (B7.2) is an essential component of the immunological synapse formed between T cells and APC. This synapse consists of CD80 and CD86 on the side of the APC and CD28 and CD40 on the side of the T cell. T cell recognition of peptide on APC without the concurrent expression of CD86 gives rise to anergy instead of a T cell response. Therefore in order to produce a response all components must be present.
The assay was based on the protocol described by Re, F. and Strominger, J. L. 2001. Toll-like receptor 2 (Tlr2) and Tlr4 differentially activate human dendritic cells. (J. Biol Chem 276: 37692-9).
Peripheral blood mononuclear cells were prepared from leucocytes from blood lots obtained from the blood bank. The cells were plated at 10^8 cells/10 ml/Petri dish in RPMI medium including 10% FCS and allowed to adhere at 37° C. for 2 hours. At the end of this time, the non-adherent cells were washed off the plates with PBS and the adherent cells resuspended in fresh medium as before. The cells were then cultured for at least 8 days with the addition of GM-CSF and IL4 with the medium changed every 4 days. After this time, the cells were harvested and cultured overnight with LPS, zymosan or p277(Val^6-Va^11). The next day, the supernatant was collected for assay of the secreted cytokines (IP-10 and IL-8) and the cells were harvested for investigation of the cell surface antigens (CD83, CD86). CD83 is an antigen characteristic of dendritic cells. […] The second marker, CD86 (B7.2) is characteristic of mature dendritic cells. The marker CD86 is an essential component of the immunological synapse formed between T cells and APC. This synapse consists of CD80 and CD86 on the side of the APC and CD28 and CD40 on the side of the T cell. This is of course in addition to the specific recognition between the T cell receptor and peptide held in the MHC of the APC. T cell recognition of peptide on APC without the concurrent expression of CD86 gives rise to anergy instead of a T cell response.

[2] = tested on: peripheral blood monocytes; assay: Peripheral blood monocytes: IP-10 after direct stimulation or preincubation then LPS; assay type: cell-based, human
Experimental: Peripheral blood mononuclear cells were prepared from leucocytes of blood lots obtained from the blood bank. The cells were plated at a concentration of 4×10^6 cell/ml/well in 24 well tissue culture dishes in medium containing 10% fetal calf serum. The cells were allowed to adhere for 2 hours at 37° C. After this time, non-adherent cells were washed away and the adherent cells incubated in fresh medium containing 10% human AB serum for 6-8 days, changing the medium after 4 days. These culture conditions were reported to give rise to monocytes.
For stimulation the medium was replaced with medium without serum. For preincubation, the cells were exposed overnight to the tested compounds at various concentrations and then LPS was added. The supernatant was collected after a further overnight incubation and tested for various cytokines by ELISA assays.

THP-1 cells = tested on: THP-1 cells
Experimental: Alternatively, APCs exposed to Hsp peptides and analogs are tested for direct influence on cytokine production. For example, pre-monocyte like derived cells (e.g. human monocytic cell line THP-1), which can be differentiated to monocytes by treatment with 100 nM phorbol ester (12-O-tetradecanoylphorbol-13-acetate, PMA) for 72 hours, are used. […] Differentiated cells are preincubated with the tested compounds or incubated after PMA treatment following subsequent stimulus with LPS. Secreted amounts of cytokines (such as TNF, and IP-10) are measured. Another example for direct measuring of cytokines secreted from APCs exposed to Hsp peptides and analogs involve measurement of cytokines (e.g. IP-10 and IL-8) secretion in human peripheral blood mononuclear cells cultured first with GM-CSF and IL4 and then with LPS, zymosan or tested peptide. These cells are also used for investigation of cell surface antigens (e.g. CD83 and CD86) indicating their maturation.
The human cell line THP-1 was used for this assay. These cells are pre-monocyte like derived from acute monocytic leukemia and can be differentiated to monocytes by treatment with 100 nM phorbol ester (12-O-tetradecanoylphorbol-13-acetate, PMA) for 72 hours. During this time the cells change morphology from round cells growing in suspension to larger, flat, adherent cells.

mouse monocyte line J774 = assay: Secretion of oxygen free radicals (oxidative burst) from mouse monocyte line; assay type: cell-based; conditions: J774, FIG. 5
[3] = differentiated THP-1 cells incubated with peptide
[4] = preincubation, subsequent stimulus with 10 ng/ml LPS

## VLGGGVALLRVIPALDSLTPANED [p277(Val^6-Val^11)]
[1]; overnight stimulation
  IL-8 secretion (in words): resulted in IL-8 secretion
  IP-10 secretion (in words): no IP-10 secretion
[1]; overnight stimulation, FIG. 3
  maturation: percentage of cells stained with anti-CD86: increase of maturation
[1]; stimulus 0.5 ng/ml
  IL-8: 2368 pg/mL
  IP-10: -1 pg/mL
[1]; stimulus 5 ng/ml
  IP-10: 2 pg/mL
[1]; stimulus 50 ng/ml
  IL-8: 2574 pg/mL
  IP-10: 39 pg/mL
[1]; stimulus 0.5 μg/ml
  IP-10: 21 pg/mL
[2]; overnight preincubation, then LPS, FIG. 4
  amount of IP-10 produced in response to stimulus with LPS after preincubation: did increase the amount of IP-10
[2]; peripheral blood monocytes, no preincubation, FIG. 4
  IP-10 after direct stimulation: did not give rise directly to II-10
[2]; preincubation with p277(Val^6-Val^11), then hsp60
  IP-10 in response to hsp60 after preincubation: did not give rise to IP-10
THP-1 cells; [3]
  direct IP-10 secretion: did not secrete TNF, or IP-10 directly
  direct TNF secretion: did not secrete TNF
THP-1 cells; preincubation with 0.0128 ng/ml, then 10 ng/ml LPS
  % stimulation of IP-10 secretion: −48%
THP-1 cells; preincubation with 0.064 ng/ml, then 10 ng/ml LPS
  % stimulation of IP-10 secretion: 52%
THP-1 cells; preincubation with 0.32 ng/ml, then 10 ng/ml LPS
  % stimulation of IP-10 secretion: 61%
THP-1 cells; preincubation with 1.6 ng/ml, then 10 ng/ml LPS
  % stimulation of IP-10 secretion: 46%
THP-1 cells; preincubation with 8 ng/ml, then 10 ng/ml LPS
  % stimulation of IP-10 secretion: 77%
THP-1 cells; preincubation with 40 ng/ml, then 10 ng/ml LPS
  % stimulation of IP-10 secretion: 141%
THP-1 cells; preincubation with 200 ng/ml, then 10 ng/ml LPS
  % stimulation of IP-10 secretion: 45%
THP-1 cells; preincubation with 1000 ng/ml, then stimulation with 10 ng/ml LPS
  % stimulation of IP-10 secretion: 45%
THP-1 cells; [4]
  amount of IP-10 secreted after preincubation and LPS (in words): increased amount of IP-10 secreted
  amount of TNF after preincubation and LPS: not significantly affected
Mouse monocyte line J774
  inhibition of the oxidative burst (secretion of oxygen free radicals): effective
Cell lines
  direct stimulation of TNFα: ineffective
  inhibition of TNFα secreted as a result of stimulation by LPS or hsp60: ineffective
